Like-named read-outs stand apart in the source and are kept apart here.
Key:
[1] = test system: HCV genotype 1a (H77 strain) replicon in HUH-7 cells; experiment: HCV replicon luciferase reporter assay, genotype 1a; assay type: cell-based; settings: Hepatitis C virus, Huh-7, 72 h, 3 days incubation
In short: (§1)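 Replicon inhibition for both genotypes was measured as Renilla luciferase signal (EnduRen, 7.5 μM final, 2 h) after 3-day, 37° C exposure of replicon-bearing HUH-7 cells in 4% FCS DMEM, 0.5% DMSO. The 1b construct carries S1179I; the 1a H77 construct carries P1496L and S2204I. Twenty-point, 3-fold dilutions were fitted four-parametrically for EC50, and CC50 was taken from multiplexed Cell Titer-Blue.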

[2] = test system: HCV genotype 1b (Con1) replicon in HUH-7 cells; experiment: HCV replicon luciferase reporter assay, genotype 1b; assay type: cell-based; settings: Hepatitis C virus, Huh-7, 72 h, 3 days incubation
In short: as §1

[3] = HCV genotype 1a replicon luciferase, read-out: LE_1a (EC50, range)
[4] = HCV genotype 1b replicon luciferase, read-out: LE_1b (EC50, range)
[5] = HCV genotype 1a replicon luciferase assay, range class, read-out: LE_1a (EC50, range)
[6] = HCV genotype 1b replicon luciferase assay, range class, read-out: LE_1b (EC50, range)

Row | Structure (SMILES) | EC50 [1, 3] [nM] | EC50 [2, 4] [nM] | EC50 [1, 5] [nM] | EC50 [2, 6] [nM] | also measured
1 | CC[C@@H]1C[C@H](C)CC/C=C\[C@@H]2C[C@@]2(C(=O)NS(=O)(=O)C2(CF)CC2)NC(=O)[C@@H]2C[C@@H](Oc3nccc4c5c(ccc34)N(C)CCO5)CN2C(=O)[C@H]1NC(=O)OC(C)(C)C(C)(F)F [Compound 5463, 3,3-difluoro-2-methylbutan-2-yl((2R,6S,7R,9R,13aS,14aR,16aS,Z)-7-ethyl-14a-(((1-(fluoromethyl)cyclopropyl)sulfonyl)carbamoyl)-9-methyl-2-((4-methyl-3,4-dihydro-2H-[1,4]oxazino[2,3-f]isoquinolin-7-yl)oxy)-5,16-dioxo-1,2,3,5,6,7,8,9,10,11,13a,14,14a,15,16,16a-hexadecahydrocyclopropa[e]pyrrolo[1,2-a][1,4]diazacyclopentadecin-6-yl)carbamate] | 5.01 to 35 | 5.01 to 35 |  |  | 
2 | CC[C@@H]1C[C@H](C)CC/C=C\[C@@H]2C[C@@]2(C(=O)NS(=O)(=O)C2(C)CC2)NC(=O)[C@@H]2C[C@@H](Oc3cc(-n4cccn4)nc4cc(OC)ccc34)CN2C(=O)[C@H]1NC(=O)OC(C)(C)C [Compound 4245, tert-butyl ((2R,6S,7R,9R,13aS,14aR,16aS,Z)-7-ethyl-2-((7-methoxy-2-(1H-pyrazol-1-yl)quinolin-4-yl)oxy)-9-methyl-14a-(((1-methylcyclopropyl)sulfonyl)carbamoyl)-5,16-dioxo-1,2,3,5,6,7,8,9,10,11,13a,14,14a,15,16,16a-hexadecahydrocyclopropa[e]pyrrolo[1,2-a][1,4]diazacyclopentadecin-6-yl)carbamate] | 0.51 to 1 | 0.1 to 0.5 |  |  | 
3 | CC[C@@H]1C[C@@H](C)CC/C=C\[C@@H]2C[C@@]2(C(=O)NS(=O)(=O)C2(C)CC2)NC(=O)[C@@H]2C[C@@H](Oc3nccc4c(OC)cccc34)CN2C(=O)[C@H]1NC(=O)OC(C)(C)C [Compound 3023, tert-butyl ((2R,6S,7R,9S,13aS,14aR,16aS,Z)-7-ethyl-2-((5-methoxyisoquinolin-1-yl)oxy)-9-methyl-14a-(((1-methylcyclopropyl)sulfonyl)carbamoyl)-5,16-dioxo-1,2,3,5,6,7,8,9,10,11,13a,14,14a,15,16,16a-hexadecahydrocyclopropa[e]pyrrolo[1,2-a][1,4]diazacyclopentadecin-6-yl)carbamate] |  |  | 4.82 to 103 | 4.82 to 103 | 
4 | COc1ccc2c(O[C@@H]3C[C@H]4C(=O)N[C@]5(C(=O)NS(=O)(=O)C6CC6)C[C@H]5/C=C\CC[C@H](C)C[C@@H](C)[C@H](NC(=O)O[C@@H]5C[C@@H]6C[C@@H]6C5)C(=O)N4C3)nc(-c3ccc(F)cc3)cc2c1 [Compound 3045, (1R,3r,5S)-bicyclo[3.1.0]hexan-3-yl((2R,6S,7R,9S,13aS,14aR,16aS,Z)-14a-((cyclopropylsulfonyl)carbamoyl)-2-((3-(4-fluorophenyl)-6-methoxyisoquinolin-1-yl)oxy)-7,9-dimethyl-5,16-dioxo-1,2,3,5,6,7,8,9,10,11,13a,14,14a,15,16,16a-hexadecahydrocyclopropa[e]pyrrolo[1,2-a][1,4]diazacyclopentadecin-6-yl)carbamate] |  |  | < 5.46 | < 5.46 | 
5 | COc1cc2c(OC)cnc(O[C@@H]3C[C@H]4C(=O)N[C@]5(C(=O)NS(=O)(=O)C6(CF)CC6)C[C@H]5/C=C\CC[C@@H](C)C[C@@H](C)[C@H](NC(=O)c5ccc(F)cc5F)C(=O)N4C3)c2cc1F [Compound 4118, (2R,6S,7R,9R,13aS,14aR,16aS,Z)-6-(2,4-difluorobenzamido)-2-(7-fluoro-4,6-dimethoxyisoquinolin-1-yloxy)-N-(1-(fluoromethyl)cyclopropylsulfonyl)-7,9-dimethyl-5,16-dioxo-1,2,3,5,6,7,8,9,10,11,13a,14,14a,15,16,16a-hexadecahydrocyclopropa[e]pyrrolo[1,2-a][1,4]diazacyclopentadecine-14a-carboxamide] | < 5.46 | < 5.46 |  |  | 
6 | C[C@@H]1CC/C=C\[C@@H]2C[C@@]2(C(=O)NS(=O)(=O)C2CC2)NC(=O)[C@@H]2C[C@@H](Oc3nccc4c5c(ccc34)OC(F)(F)O5)CN2C(=O)[C@@H](NC(=O)O[C@H](C)C(F)(F)F)[C@H](C)C1 [Compound 5270, (R)-1,1,1-trifluoropropan-2-yl ((2R,6S,7R,9R,13aS,14aR,16aS,Z)-14a-((cyclopropylsulfonyl)carbamoyl)-2((2,2-difluoro-[1,3]dioxolo[4,5-f]isoquinolin-6-yl)oxy)-7,9-dimethyl-5,16-dioxo-1,2,3,5,6,7,8,9,10,11,13a,14,14a,15,16,16a-hexadecahydrocyclopropa[e]pyrrolo[1,2-a][1,4]diazacyclopentadecin-6-yl)carbamate] | < 5.46 | < 5.46 |  |  | 
7 | COc1ccc2c(O[C@@H]3C[C@H]4C(=O)N[C@]5(C(=O)NS(=O)(=O)C6(CF)CC6)C[C@H]5/C=C\CC[C@H](C)C[C@@H](C)[C@H](NC(=O)OC(C)(C)C(C)(F)F)C(=O)N4C3)nc(N(C)C)cc2c1 [Compound 3124, 3,3-difluoro-2-methylbutan-2-yl((2R,6S,7R,9S,13aS,14aR,16aS,Z)-2-((3-(dimethylamino)-6-methoxyisoquinolin-1-yl)oxy)-14a-(((1-(fluoromethyl)cyclopropyl)sulfonyl)carbamoyl)-7,9-dimethyl-5,16-dioxo-1,2,3,5,6,7,8,9,10,11,13a,14,14a,15,16,16a-hexadecahydrocyclopropa[e]pyrrolo[1,2-a][1,4]diazacyclopentadecin-6-yl)carbamate] |  |  | 4.82 to 103 | 4.82 to 103 | 
8 | CC[C@@H]1C[C@H](C)CC/C=C\[C@@H]2C[C@@]2(C(=O)NS(=O)(=O)C2(C)CC2)NC(=O)[C@@H]2C[C@@H](Oc3nc(OC)cc4ccccc34)CN2C(=O)[C@H]1NC(=O)OC(C)(C)C [Compound 6005, tert-butyl ((2R,6S,7R,9R,13aS,14aR,16aS,Z)-7-ethyl-2-((3-methoxyisoquinolin-1-yl)oxy)-9-methyl-14a-(((1-methylcyclopropyl)sulfonyl)carbamoyl)-5,16-dioxo-1,2,3,5,6,7,8,9,10,11,13a,14,14a,15,16,16a-hexadecahydrocyclopropa[e]pyrrolo[1,2-a][1,4]diazacyclopentadecin-6-yl)carbamate] | < 5.46 | < 5.46 |  |  | EC50 ([1]; HCV genotype 1a replicon luciferase, read-out: LE_1a (EC50)): 1.29 nM; EC50 ([2]; HCV genotype 1b replicon luciferase, read-out: LE_1b (EC50)): 0.28 nM
9 | COc1ccc2c(O[C@@H]3C[C@H]4C(=O)N[C@]5(C(=O)NS(=O)(=O)C6(Cl)CC6)C[C@H]5/C=C\CC[C@@H](C)C[C@@H](C)[C@H](NC(=O)OC(C)(C)C)C(=O)N4C3)ncc(OC)c2c1 [Compound 4125, tert-butyl (2R,6S,7R,9R,13aS,14aR,16aS,Z)-14a-(1-chlorocyclopropylsulfonylcarbamoyl)-2-(4,6-dimethoxyisoquinolin-1-yloxy)-7,9-dimethyl-5,16-dioxo-1,2,3,5,6,7,8,9,10,11,13a,14,14a,15,16,16a-hexadecahydrocyclopropa[e]pyrrolo[1,2-a][1,4]diazacyclopentadecin-6-ylcarbamate] | < 5.46 | < 5.46 |  |  | 
10 | CC(C)Oc1cc2c(Cl)cccc2c(O[C@@H]2C[C@H]3C(=O)N[C@]4(C(=O)NS(=O)(=O)C5CC5)C[C@H]4/C=C\CC[C@@H](C)C[C@@H](C)[C@H](NC(=O)OC(C)(C)C(F)(F)F)C(=O)N3C2)n1 [Compound 1094, 1,1,1-trifluoro-2-methylpropan-2-yl((2R,6S,7R,9R,13aS,14aR,16aS,Z)-2-((5-chloro-3-isopropoxyisoquinolin-1-yl)oxy)-14a-((cyclopropylsulfonyl)carbamoyl)-7,9-dimethyl-5,16-dioxo-1,2,3,5,6,7,8,9,10,11,13a,14,14a,15,16,16a-hexadecahydrocyclopropa[e]pyrrolo[1,2-a][1,4]diazacyclopentadecin-6-yl)carbamate] |  |  | < 5.46 | < 5.46 | 
11 | COc1ccc2c(O[C@@H]3C[C@H]4C(=O)N[C@]5(C(=O)NS(=O)(=O)C6(F)CC6)C[C@H]5/C=C\CC[C@@H](C)C[C@@H](C)[C@H](NC(=O)OCC5(C)CC5)C(=O)N4C3)nccc2c1 [Compound 4036] | < 5.46 | < 5.46 |  |  | 
12 | COc1ccc2c(O[C@@H]3C[C@H]4C(=O)N[C@]5(C(=O)NS(=O)(=O)C6(C)CC6)C[C@H]5/C=C\CC[C@H](C)C[C@@H](C)[C@H](NC(=O)OC(C)(C)C)C(=O)N4C3)nc(N(C)C)nc2c1 [Compound 3001, tert-butyl ((2R,6S,7R,9S,13aS,14aR,16aS,Z)-2-((2-(dimethylamino)-7-methoxyquinazolin-4-yl)oxy)-7,9-dimethyl-14a-(((1-methylcyclopropyl)sulfonyl)carbamoyl)-5,16-dioxo-1,2,3,5,6,7,8,9,10,11,13a,14,14a,15,16,16a-hexadecahydrocyclopropa[e]pyrrolo[1,2-a][1,4]diazacyclopentadecin-6-yl)carbamate] |  |  | < 5.46 | < 5.46 | 
13 | COc1ccc2c(O[C@@H]3C[C@H]4C(=O)N[C@]5(C(=O)NS(=O)(=O)C6(C(F)F)CC6)C[C@H]5/C=C\CC[C@@H](C)C[C@@H](C)[C@H](NC(=O)OC(C)(C)C(F)(F)F)C(=O)N4C3)nc(OC)cc2c1 [Compound 1181] |  |  |  |  | EC50 ([1]; GETYPE1A, HCV genotype 1a replicon luciferase assay, range class, read-out: LE_1a (EC50, range)): < 5.46 nM; EC50 ([2]; GETYPE1B, HCV genotype 1b replicon luciferase assay, range class, read-out: LE_1b (EC50, range)): < 5.46 nM
